Measured values taken from US5801180A, “Quinazoline derivatives” (priority 1991, dated 1998).

The compounds below were run against T1, cGMP-PDE prepared from the swine aeorta (Sus scrofa, UniProt A0A287B475) (assay: Enzyme inhibiting action with the use of cGMP-PDE prepared from the swine aorta). Conditions: CaM-independent cGMP-PDE, 1 mM EGTA, 1 μM cGMP substrate, DMSO 4% or below.
T1 construct: The swine aeorta was sliced; from tissue; host or cells: swine aorta, 100000×g supernatant, DEAE-Toyopearl 650S fraction
Format: biochemical
Protocol: Enzyme inhibiting action with the use of cGMP-PDE prepared from the swine aeorta
The enzymatic activity of the cGMP-PDE prepared from the swine aeorta was determined according to the method of Thompson et al. ^(1). The enzymatic activity thereof was determined in the presence of 1 mM EGTA by the use of 1 μM cGMP as a substrate. The compound of the present invention was dissolved in DMSO, added to the reaction liquid and examined for the inhibitory activity. The final concentration of DMSO in the reaction liquid was adjusted to 4% or below. (1) Thompson, W. J. and Strada, S. J., Cyclic Nucleotide Phosphodiesterase (PDE), in Methods of Enzymatic Analysis, vol 4, p.127-234, 1984.
The swine aeorta was sliced, followed by the addition of 10 times by volume as much Buffer A (20 mM Tris/HCl, 2 mM Mg acetate, 1 mM Dithiothreitol, 5 mM EDTA, 1400 TIU/liter aprotinin, 10 mg/liter leupeptin, 1 mM benzamidine, 0.2 mM PMSF, pH 7.5). The obtained mixture was homogenized and the homogenate was centrifuged at 100000×g for one hour. The obtained supernatant was supplied a DEAE-Toyopearl 650S (Tosoh, Tokyo, Japan) column. After the column was washed with Buffer B (50 mM Tris/HCl, 0.1 mM EGTA, 2 mM Mg acetate, 1 mM Dithiothreitol, 0.2 mM PMSF, pH 7.5), gradient elution with 0.05 to 0.4M NaCl was conducted. Thus, CaM-independent cGMP-PDE fractions were obtained.

Which IC50 does the source give for `O=C(O)C1CCN(c2nc(NCc3ccc4c(c3)OCO4)c3cc(Cl)ccc3n2)CC1` [Example 222, 2-(4-Carboxypiperidino)-4-(3,4-methylenedioxybenzyl)amino-6-chloroquinazoline] here?
The IC50 was 0.0065 µM.

For `CCOC(=O)CCCN(C)c1nc(NCc2ccc(OC)c(Cl)c2)c2cc(C#N)ccc2n1` [Example 220], which IC50 is on record?
The IC50 was 0.00024 µM.

`COc1ccc2ncnc(NCc3ccc4nc[nH]c4c3)c2c1` [Example 45, 4-(Benzimidazol-5-ylmethyl)amino-6-methoxyquinazoline] was tested. Which IC50 did it give?
The IC50 was 0.41 µM.

Which IC50 does the source give for `CCOC(=O)c1ccc2ncnc(NCc3ccc4c(c3)OCO4)c2c1` [Example 68, 4-(3,4-Methylenedioxybenzyl)amino-6-ethoxycarbonylquinazoline] here?
The IC50 was 0.62 µM.

For `COc1ccc(CNc2cc(N3CCC(C(=O)O)CC3)nc3ccc(Cl)cc23)cc1Cl` [Example 256, 2-(4-Carboxypiperidino)-4-(3-chloro-4-methoxybenzyl)amino-6-chloroquinoline], which IC50 is on record?
Its IC50 is 0.0021 µM.

How did the IC50 turn out when `N#Cc1ccc2nc(N3CCOCC3)nc(NCc3ccc4c(c3)OCO4)c2c1` [Example 181, 2-Morpholino-4-(3,4-methylenedioxybenzyl)amino-6-cyanoquinazoline] was run?
Its IC50 is 0.005 µM.

`NC(=O)c1nc(NCc2ccc3c(c2)OCO3)c2cc(Cl)ccc2n1` [Example 134, 2-Carbamoyl-4-(3,4-methylenedioxybenzyl)amino-6-chloroquinazoline] was tested. Which IC50 did it give?
Its IC50 is 0.005 µM.

`COc1ccc2nc(C(C)C)nc(NCc3ccc4c(c3)OCO4)c2c1` [Example 82, 2-Isopropyl-4-(3,4-methylenedioxybenzyl)amino-6-methoxyquinazoline] was tested. Which IC50 did it give?
The IC50 was 0.55 µM.

`COc1cc2c(NCc3ccc4c(c3)OCO4)nc(N3CCC(C(=O)O)CC3)nc2c(OC)c1OC` [Example 231, 2-(4-Carboxypiperidino)-4-(3,4-methylenedioxybenzyl)amino-6,7,8-trimethoxyquinazoline] was tested. Which IC50 did it give?
The IC50 was 0.41 µM.

With `COc1ccc2nc(OCc3ccccc3)nc(NCc3ccc4c(c3)OCO4)c2c1` [Example 91, 2-Benzyloxy-4-(4-methylenedioxybenzyl)amino-6-methoxyquinazoline] as the compound, how does the IC50 read?
Its IC50 is 0.036 µM.

How did the IC50 turn out when `COCCOc1nc(NCc2ccc3c(c2)OCO3)c2cc(OC)ccc2n1` [Example 170, 2-(2-Methoxyethoxy)-4-(3,4-methylenedioxybenzyl)amino-6-methoxyquinazoline] was run?
The IC50 was 0.029 µM.

With `CNC(=O)N(C(=O)NC)c1nc(NCc2ccc3c(c2)OCO3)c2cc(Cl)ccc2n1` [Example 203, 2-Bis(methylcarbamoyl)amino-4-(3,4-methylenedioxybenzyl)amino-6-chloroquinazoline] as the compound, how does the IC50 read?
Its IC50 is 0.028 µM.

For `COCCN(Cc1ccc2c(c1)OCO2)c1ncnc2ccc(SC)cc12` [Example 53, 4-[N-(2-Methoxyethyl)-(3,4-methylenedioxybenzyl)amino]-6-methylthioquinazoline], which IC50 is on record?
Its IC50 is 0.12 µM.

How did the IC50 turn out when `COCCOc1nc(NCc2ccc3nc[nH]c3c2)c2cc(C#N)ccc2n1` [Example 171, 2-(2-Methoxyethoxy)-4-(benzimidazol-5-yl)methylamino-6-cyanoquinazoline] was run?
Its IC50 is 0.0004 µM.

`O=C(O)/C=C/c1nc(NCc2ccc3c(c2)OCO3)c2cc(Cl)ccc2n1` [Example 122, (E)-2-(2-Carboxyvinyl)-4-(3,4-methylenedioxybenzyl)amino-6-chloroquinazoline] was tested. Which IC50 did it give?
The IC50 was 0.005 µM.

With `N#Cc1ccc2nc(N)nc(NCc3ccc4c(c3)OCO4)c2c1` [Example 201, 2-Amino-4-(3,4-methylenedioxybenzyl)amino-6-cyanoquinazoline] as the compound, how does the IC50 read?
The IC50 was 0.049 µM.

With `OC1CCN(c2nc(NCc3ccc4c(c3)OCO4)c3cc(Cl)ccc3n2)CC1` [Example 185, 2-(4-Hydroxypiperidino)-4-(3,4-methylenedioxybenzyl)amino-6-chloroquinazoline] as the compound, how does the IC50 read?
Its IC50 is 0.01 µM.

Which IC50 does the source give for `CCOC(=O)CCCNc1nc(NCc2ccc3c(c2)OCO3)c2cc(Cl)ccc2n1` [Example 214, 2-(3-Ethoxycarbonylpropyl)amino-4-(3,4-methylenedioxybenzyl)amino-6-chloroquinazoline] here?
Its IC50 is 0.009 µM.

`NC(=O)CNc1nc(NCc2ccc3c(c2)OCO3)c2cc(Cl)ccc2n1` [Example 197] was tested. Which IC50 did it give?
The IC50 was 0.066 µM.

Which IC50 does the source give for `COc1ccc2ncnc(NCc3ccc4c(c3)OCO4)c2c1` [Example 46, 4-(3,4-Methylenedioxybenzyl)amino-6-methoxyquinazoline] here?
The IC50 was 0.24 µM.

How did the IC50 turn out when `Oc1nc(NCc2ccc3c(c2)OCO3)c2cc(Cl)ccc2n1` [Example 177, 2-Hydroxy-4-(3,4-methylenedioxybenzyl)amino-6-chloroquinazoline] was run?
Its IC50 is 0.012 µM.

`CSc1ccc2ncnc(NCc3ccc(Cl)c(Cl)c3)c2c1` [Example 50, 4-(3,4-Dichlorobenzyl)amino-6-methylthioquinazoline] was tested. Which IC50 did it give?
The IC50 was 0.032 µM.

Which IC50 does the source give for `COc1cc2c(NCc3ccc4c(c3)OCO4)nc(NCCO)nc2c(OC)c1OC` [Example 187, 2-(2-Hydroxyethyl)amino-4-(3,4-methylenedioxybenzyl)amino-6,7,8-trimethoxyquinazoline] here?
The IC50 was 0.12 µM.

For `CCOC(=O)CCCCCNc1nc(NCc2ccc3c(c2)OCO3)c2cc(Cl)ccc2n1` [Example 216, 2-(5-Ethoxycarbonylpentyl)amino-4-(3,4-methylenedioxybenzyl)amino-6-chloroquinazoline], which IC50 is on record?
Its IC50 is 0.017 µM.

For `O=[N+]([O-])c1cc(CNc2ncnc3ccc(Cl)cc23)ccc1Cl` [Example 55], which IC50 is on record?
Its IC50 is 0.03 µM.

Which IC50 does the source give for `Nc1nc(NCc2ccc3c(c2)OCO3)c2cc(Cl)ccc2n1` [Example 200, 2-Amino-4-(3,4-methylenedioxybenzyl)amino-6-chloroquinazoline] here?
Its IC50 is 0.064 µM.

With `Nc1cc(CNc2ncnc3ccc(Cl)cc23)ccc1Cl` [Example 151, 4-(3-Amino-4-chlorobenzyl)amino-6-chloroquinazoline] as the compound, how does the IC50 read?
Its IC50 is 0.081 µM.

Which IC50 does the source give for `COCCN(Cc1ccc2c(c1)OCO2)c1ncnc2c(OC)c(OC)c(OC)cc12` [Example 42, 4-[N-(2-Methoxyethyl)-(3,4-methylenedioxybenzyl)-amino]-6,7,8-trimethoxyquinazoline] here?
Its IC50 is 0.19 µM.

How did the IC50 turn out when `C/C(=C\c1nc(NCc2ccc3c(c2)OCO3)c2cc(Cl)ccc2n1)C(=O)O` [Example 120, (E)-2-(2-Carboxy-1-propenyl)-4-(3,4-methylenedioxybenzyl)amino-6-chloroquinazoline] was run?
The IC50 was 0.001 µM.

Which IC50 does the source give for `COc1cc2ncnc(NCc3ccc4c(c3)OCO4)c2cc1SC` [Example 74, 4-(34-Methylenedioxybenzyl)amino-6-methylthio-7-methoxyquinazoline] here?
The IC50 was 0.35 µM.

How did the IC50 turn out when `COc1ccc2ncnc(NCc3ccc4c(c3)OCO4)c2c1OC` [Example 72, 4-(4-Methylenedioxybenzyl)amino-5,6-dimethoxyquinazoline] was run?
Its IC50 is 0.73 µM.

How did the IC50 turn out when `O=C(O)c1nc(NCc2ccc3c(c2)OCO3)c2cc(Cl)ccc2n1` [Example 121, 2-Carboxy-4-(3,4-methylenedioxybenzyl)amino-6-chloroquinazoline] was run?
The IC50 was 0.65 µM.

How did the IC50 turn out when `CN(CC(=O)O)c1nc(NCc2ccc3c(c2)OCO3)c2cc(C#N)ccc2n1` [Example 241, 2-(N-Carboxymethyl-N-methylamino)-4-(3,4-methylenedioxybenzyl)amino-6-cyanoquinazoline] was run?
The IC50 was 0.18 µM.

For `CCCCCNc1nc(NCc2ccc3c(c2)OCO3)c2cc(Cl)ccc2n1` [Example 194, 2-Pentylamino-4-(3,4-methylenedioxybenzyl)amino-6-chloroquinazoline], which IC50 is on record?
Its IC50 is 0.004 µM.

`CCCOc1ccccc1-c1nc(NCc2ccc3c(c2)OCO3)c2cc(Cl)ccc2n1` [Example 83, 2-(2-Propoxyphenyl)-4-(3,4-methylenedioxybenzyl)amino-6-chloroquinazoline] was tested. Which IC50 did it give?
Its IC50 is 0.024 µM.

Which IC50 does the source give for `O=C(O)C1CCN(c2nc(NCc3ccc4[nH]cnc4c3)c3cc(Cl)ccc3n2)CC1` [Example 236, 2-(4-Carboxypiperidino)-4-(benzimidazol-5-yl)methylamino-6-chloroquinazoline] here?
Its IC50 is 0.006 µM.

`Clc1ccc2ncnc(NCc3ccc(Cl)c(Cl)c3)c2c1` [Example 58, 4-(3,4-Dichlorobenzyl)amino-6-chloroquinazoline] was tested. Which IC50 did it give?
The IC50 was 0.042 µM.

`COc1ccc(CNc2nc(/C=C(/C)C(=O)O)nc3ccc(Cl)cc23)cc1Cl` [Example 126, (Z)-2-(2-Carboxy-1-propenyl)-4-(3-chloro-4-methoxybenzyl)amino-6-chloroquinazoline] was tested. Which IC50 did it give?
Its IC50 is 0.001 µM.

With `N#Cc1ccc2nc(Cl)nc(NCc3ccc4nc[nH]c4c3)c2c1` [Example 104, 2-Chloro-4-(benzimidazol-5-yl)methylamino-6-cyanoquinazoline] as the compound, how does the IC50 read?
Its IC50 is 0.01 µM.

For `COc1nc(NCc2ccc3c(c2)OCO3)c2cc(Cl)ccc2n1` [Example 165, 2-Methoxy-4-(3,4-methylenediokybenzyl)amino-6-chloroquinazoline], which IC50 is on record?
Its IC50 is 0.016 µM.

How did the IC50 turn out when `CSc1ccc2ncnc(NCc3ccc4nc[nH]c4c3)c2c1` [Example 52, 4-(Benzimidazol-5-ylmethyl)amino-6-methylthioquinazoline] was run?
The IC50 was 0.069 µM.

Which IC50 does the source give for `CCN(Cc1ccc2c(c1)OCO2)c1ncnc2c(OC)c(OC)c(OC)cc12` [Example 40] here?
Its IC50 is 0.65 µM.

Which IC50 does the source give for `ON=Cc1nc(NCc2ccc3c(c2)OCO3)c2cc(Cl)ccc2n1` [Example 146, 2-Hydroxyiminomethyl-4-(3,4-methylenedioxybenzyl)amino-6-chloroquinazoline] here?
Its IC50 is 0.015 µM.
